Results on 2 compounds are retold here after PubChem BioAssay AID180 (DTP/NCI, 2004).

This assay has as its system BDF1 mice, Adenocarcinoma 755 s.c., tumor weight T/C. Description: NCI In Vivo Anticancer Drug Screen. Data for tumor model Adenocarcinoma 755 (subcutaneous) in B6D2F1 (BDF1) mice. To be noted: endpoint: mean tumor weight, schedule: Q01DX011 (ip), higher = larger tumour. The essentials:
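Transplantable tumor implanted; mice dosed with compound or vehicle; survival or tumor size recorded; ratio of treated to vehicle control reported.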

Molecules are shown by their SMILES. “And” between values parts separate entries of the source, which are not always exact repeats. Equal values may be shown once.

`CNC=O`: the T/C (in general, the ratio of treated to control) (dose: 4.41 mg/kg/injection, vehicle: carboxymethylcellulose (CMC)) is 107 % of control; the T/C (dose: 8.82 mg/kg/injection, vehicle: carboxymethylcellulose (CMC)) is 94 % of control; the T/C (dose: 17.65 mg/kg/injection, vehicle: carboxymethylcellulose (CMC)) is 110 % of control; the T/C (dose: 42.88 mg/kg/injection, vehicle: carboxymethylcellulose (CMC)) was 60 % of control; the T/C (dose: 45.0 mg/kg/injection, vehicle: carboxymethylcellulose (CMC)) was 113 % of control; the T/C (dose: 85.75 mg/kg/injection, vehicle: carboxymethylcellulose (CMC)) is 78 % of control. For the same compound, the T/C runs as follows: (dose: 90.0 mg/kg/injection, vehicle: carboxymethylcellulose (CMC)) 99 % of control; (dose: 93.67 mg/kg/injection, vehicle: carboxymethylcellulose (CMC)) 104 % of control; (dose: 137.2 mg/kg/injection, vehicle: carboxymethylcellulose (CMC)) 70 % of control; (dose: 144.0 mg/kg/injection, vehicle: carboxymethylcellulose (CMC)) 86 % of control; (dose: 180.0 mg/kg/injection, vehicle: carboxymethylcellulose (CMC)) 98 % of control; (dose: 187.35 mg/kg/injection, vehicle: carboxymethylcellulose (CMC)) 100 % of control and 111 % of control. The T/C was 31 % of control (dose: 200.0 mg/kg/injection, vehicle: saline); 65 % of control (dose: 228.6 mg/kg/injection, vehicle: carboxymethylcellulose (CMC)); 101 % of control (dose: 240.0 mg/kg/injection, vehicle: carboxymethylcellulose (CMC)); 14 % of control (dose: 250.0 mg/kg/injection, vehicle: saline); 1 % of control (dose: 300.0 mg/kg/injection, vehicle: saline); 20 % of control and 30 % of control (dose: 343.0 mg/kg/injection, vehicle: carboxymethylcellulose (CMC)). For the same compound, the T/C was 30 % of control and 35 % of control (dose: 360.0 mg/kg/injection, vehicle: carboxymethylcellulose (CMC)); 103 % of control (dose: 374.7 mg/kg/injection, vehicle: carboxymethylcellulose (CMC)).

Consider `CC1CN(Cc2ccccc2)C(=S)N(c2ccccc2)C1=O` (stereo not given), for which the T/C is 87 % of control (dose: 15.0 mg/kg/injection, vehicle: methylcellulose (MC)); 74 % of control (dose: 31.0 mg/kg/injection, vehicle: methylcellulose (MC)); 96 % of control (dose: 62.0 mg/kg/injection, vehicle: methylcellulose (MC)); 97 % of control (dose: 125.0 mg/kg/injection, vehicle: methylcellulose (MC)); 82 % of control (dose: 250.0 mg/kg/injection, vehicle: methylcellulose (MC)).
